This is an account of results in patent US7105492B2, “Camptothecin derivatives having antitumor activity” (priority 1999, dated 2006).

The structures appear in SMILES notation.

Data set [1] in a line: Water solubility (remark in Table 4). It counts as physicochemical.
In data set [2] the test system is NCI H460 lung non-small cell carcinoma. Nature of the data set: Antiproliferative activity test (cytotoxic activity) on NCI H460 cells. The following applies: H-460. It counts as cell-based, human. Here is the method: Cytotoxic activity of the compounds of the present invention was assayed in cell systems of human tumour cells, using the antiproliferative activity test as a method of evaluation of the cytotoxic potential.
The cell line used is a lung non-small cell carcinoma that belongs to non-small cells hystotype named NCI H460.

The test system of data set [3] is MKN-28 human gastric carcinoma. In words: ST 1737 per os in athymic nude mice bearing s.c. MKN-28 human gastric carcinoma. It counts as in vivo. The settings on record: q4d × 4; for TVI % (tumor volume inhibition % in treated over control tumors): at 11–12 day after last treatment.

The term IC50 denotes the concentration that gives 50% inhibition. Read a high IC50 as a need for much substance. Consider `CC[C@@]1(O)C(=O)OCc2c1cc1n(c2=O)Cc2c-1nc1ccccc1c2C=Nc1ccccc1SSc1ccccc1N` [ST 1737, 7–2-(2-aminophenyldithio)phenyliminomethylcamptothecin], for which the “water solubility (in words)” value in data set [1] is on record as “(water soluble)”. This compound also displayed an IC50 in data set [2] of 0.017 µM. Besides, in data set [3] (4 mg/kg per os), the “Tox (Dead/treated mice)” value is 0/4 and the “TVI % (tumor volume inhibition % in treated over control tumors)” value is given as 69%. Further, in data set [3] (7 mg/kg per os), the “Tox (Dead/treated mice)” value was 0/4 and the “TVI % (tumor volume inhibition % in treated over control tumors)” value was found to be 56%. In addition, in data set [3] (12 mg/kg per os), the “BWL % (body weight loss % induced by drug treatment)” value worked out at 4%, the “Tox (Dead/treated mice)” value was 0/4 and the “TVI % (tumor volume inhibition % in treated over control tumors)” value was 68%.
